Assay results published in patent US8148411B2, “2-hetarylthiazole-4-carboxamide derivatives, their preparation and use as pharmaceuticals” (Bayer Pharma Aktiengesellschaft, priority 2007, dated 2012).

The molecules below were run on TLR7 (assay: TLR-induced cytokine release in human peripheral blood mononuclear cells (PBMC), TNF-alpha by ELISA). Conditions: human PBMC incubated 18 hours with test substance in presence of TLR7 ligand; TNF-alpha in supernatant by ELISA; read-out: EC50 (TNF-α TLR7).
Type: cell-based
Description: TLR-Induced Cytokine Release in Human “Peripheral Blood Mononuclear Cells” (PBMC)
PBMCs isolated from human whole blood are stimulated using a TLR ligand.
The cytokine determination is carried out by means of ELISA kits; a proliferation/cell metabolism determination is carried out using Alamar Blue.
For the cell preparation, about 200 ml of blood are treated with an anticoagulant (e.g. citrate Monovettes). Per Leucosep tube, 15 ml of Histopaque (room temperature, RT) are poured in and forced downwards through the inserted frit by brief initial centrifugation (one minute at 1000×g, RT). 20 ml of blood are added to the tubes prepared in this way and centrifuged at 800×g for 15 minutes (RT). After centrifugation, the following layering results from the top to the bottom:
plasma-PBMC-Histopaque-filter disc-Histopaque-erythrocytes and granulocytes. The supernatant plasma is aspirated. The PBMC are transferred together with the underlying Histopaque to a new 50 ml tube, the contents of two Leucosep tubes always being added to one 50 ml tube. The 50 ml tubes are then filled to 50 ml with PBS. This cell suspension is centrifuged at 300×g (RT) for 10 minutes.
The liquid supernatant is tipped off and the cell pellet is resuspended with a little PBS and subsequently filled to 50 ml with PBS. This washing step is repeated twice. The resulting pellet is taken up in a defined volume of medium (with additives). For the testing of the substances, PBMC are incubated for 18 hours with titrated concentrations of the test substances, e.g. in the presence or absence of TLR7 or TLR9 ligands. On the next day, the supernatants are investigated for the content of TNF-alpha or other cyto- or chemokines by means of specific ELISA. The metabolic activity of the treated cells is determined with the aid of Alamar Blue.

Structure (SMILES)	EC50
Cc1ccc(C(N)=O)c(NC(=O)c2csc(-c3cnccc3C(F)(F)F)n2)c1 [Example 1.11, N-[2-(Aminocarbonyl)-5-methylphenyl]-2-[4-(trifluoromethyl)-3-pyridinyl]-4-thiazolecarboxamide]	30000 nM
Cc1ccc(NC(=O)c2csc(-c3cccnc3)n2)c(C(N)=O)c1 [Example 1.4, N-[2-(Aminocarbonyl)-4-methylphenyl]-2-(3-pyridinyl)-4-thiazolecarboxamide]	490 nM
NC(=O)c1cc(F)ccc1NC(=O)c1csc(-c2cccnc2)n1 [Example 1.18, N-[2-(Aminocarbonyl)-4-fluorophenyl]-2-(3-pyridinyl)-4-thiazolecarboxamide]	1900 nM
NC(=O)c1ccccc1NC(=O)c1csc(-c2cccnc2)n1 [Example 1.1, N-[2-(Aminocarbonyl)phenyl]-2-(3-pyridinyl)-4-thiazolecarboxamide]	900 nM
Cn1ncc(NC(=O)c2csc(-c3ccncc3)n2)c1C(N)=O [Example 1.2, N-[5-(Aminocarbonyl)-1-methyl-1H-pyrazol-4-yl]-2-(4-pyridinyl)-4-thiazolecarboxamide]	2400 nM
NC(=O)c1ccncc1NC(=O)c1csc(-c2ccncc2)n1 [Example 1.22, 3-[(2-Pyridin-4-ylthiazole-4-carbonyl)amino]isonicotinamide]	7000 nM
NC(=O)c1ccccc1NC(=O)c1csc(-c2ccncc2)n1 [Example 1.3, N-[2-(Aminocarbonyl)phenyl]-2-(4-pyridinyl)-4-thiazolecarboxamide]	1300 nM
NC(=O)c1ncccc1NC(=O)c1csc(-c2ccncc2)n1 [Example 1.21, 3-[(2-Pyridin-4-ylthiazole-4-carbonyl)amino]pyridine-2-carboxamide]	5200 nM
Cc1ccc(C(N)=O)c(NC(=O)c2csc(-c3ccc(N)nc3)n2)c1 [Example 2.4, N-[2-(Aminocarbonyl)-5-methylphenyl]-2-(6-aminopyridin-3-yl)thiazole-4-carboxamide]	1300 nM
Cc1ccc(C(N)=O)c(NC(=O)c2csc(-c3cccnc3)n2)c1 [Example 1.5, N-[2-(Aminocarbonyl)-5-methylphenyl]-2-(3-pyridinyl)-4-thiazolecarboxamide]	4100 nM
NC(=O)c1cc(Cl)ccc1NC(=O)c1csc(-c2cccnc2)n1 [Example 1.6, N-[2-(Aminocarbonyl)-4-chlorophenyl]-2-(3-pyridinyl)-4-thiazolecarboxamide]	30000 nM
Cc1ccc(C(N)=O)c(NC(=O)c2csc(-c3ccncc3)n2)c1 [Example 1.8, N-[2-(Aminocarbonyl)-5-methylphenyl]-(4-pyridinyl)-4-thiazolecarboxamide]	1100 nM
CC(C)(C)c1cc(NC(=O)c2csc(-c3cccnc3)n2)c(C(N)=O)s1 [Example 1.17, N-[2-(Aminocarbonyl)-5-(1,1-dimethylethyl)-3-thienyl]-2-(3-pyridinyl)-4-thiazolecarboxamide]	2600 nM
NC(=O)c1ncccc1NC(=O)c1csc(-c2cccnc2)n1 [Example 1.7, 3-[(2-Pyridin-3-ylthiazole-4-carbonyl)amino]pyridine-2-carboxamide]	1800 nM
